In ChEMBL document CHEMBL5236560, “Structure-Based Discovery of Potent CARM1 Inhibitors for Solid Tumor and Cancer Immunology Therapy” (J Med Chem, 2021):

Columns and labels:
[1] = target: T1, Histone-arginine methyltransferase CARM1 (Homo sapiens, UniProt Q86X55); experiment: Inhibition of human CARM1 (140 to 480 residues) incubated for 15 mins measured after 60 min by AlphaLISA assay
T1 sequence (Q86X55 whole entry): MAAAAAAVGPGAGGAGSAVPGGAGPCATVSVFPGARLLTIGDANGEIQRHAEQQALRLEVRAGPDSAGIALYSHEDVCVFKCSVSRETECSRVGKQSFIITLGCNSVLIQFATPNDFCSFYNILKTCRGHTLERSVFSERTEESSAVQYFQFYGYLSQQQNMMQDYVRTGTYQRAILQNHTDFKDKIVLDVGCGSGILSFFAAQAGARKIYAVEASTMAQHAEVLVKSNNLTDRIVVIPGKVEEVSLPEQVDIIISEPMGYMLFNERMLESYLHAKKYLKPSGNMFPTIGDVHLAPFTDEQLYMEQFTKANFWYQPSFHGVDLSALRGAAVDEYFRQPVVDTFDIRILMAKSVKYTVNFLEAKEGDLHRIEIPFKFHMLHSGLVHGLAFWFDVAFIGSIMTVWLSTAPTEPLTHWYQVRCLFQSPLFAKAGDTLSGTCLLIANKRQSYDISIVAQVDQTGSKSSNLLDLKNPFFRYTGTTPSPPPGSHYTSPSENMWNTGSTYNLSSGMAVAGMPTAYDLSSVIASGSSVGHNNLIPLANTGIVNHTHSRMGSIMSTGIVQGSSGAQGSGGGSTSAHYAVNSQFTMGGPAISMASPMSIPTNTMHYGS

BT-549 = experiment: Antiproliferative activity against human BT-549 cells assessed as cell growth inhibition incubated for 6 days by SRB assay; format: functional, cell-based; details: BT-549, 144 h
A-375 [2] = experiment: Antiproliferative activity against human A-375 cells assessed as cell growth inhibition incubated for 6 days by SRB assay; format: functional, cell-based; details: A-375, 144 h
A-375 [3] = experiment: Antitumor activity against human A-375 cells xenografted in po dosed nude mouse assessed as tumor growth inhibition at 75 mg/kg administered once daily measured after 21 days relative to control; format: functional; details: A-375, 504 h, time 21 day, read-out: TGI
A-375 [4] = experiment: Antitumor activity against human A-375 cells xenografted in po dosed nude mouse assessed as tumor growth inhibition at 100 mg/kg administered once daily measured after 21 days relative to control; format: functional; details: A-375, 504 h, time 21 day, read-out: TGI
[5] = Half life in ICR mouse at 10 mg/kg, po measured upto 24 hrs by UPLC analysis; format: ADME, organism-based; details: in vivo
[6] = Tmax in ICR mouse at 10 mg/kg, po measured upto 24 hrs by UPLC analysis; format: ADME, organism-based; details: in vivo
[7] = Cmax in ICR mouse at 10 mg/kg, po measured upto 24 hrs by UPLC analysis; format: ADME, organism-based; parameters: time < 24 hrs, dose 10 mg/kg, route po; details: in vivo
[8] = AUClast in ICR mouse at 10 mg/kg, po measured upto 24 hrs by UPLC analysis; format: ADME, organism-based; parameters: dose 10 mg/kg, time < 24 hrs, route po; details: in vivo
[9] = AUC(0 to infinity) in ICR mouse at 10 mg/kg, po measured upto 24 hrs by UPLC analysis; format: ADME, organism-based; parameters: dose 10 mg/kg, time < 24 hrs, route po; details: in vivo
[10] = Metabolic stability in human liver microsomes assessed as parent compound remaining measured after 2 hrs; format: ADME, Microsome; details: read-out: Stability
[11] = Metabolic stability in monkey liver microsomes assessed as parent compound remaining measured after 2 hrs; format: ADME, Macaca mulatta, Microsome; details: rhesus monkey, read-out: Stability
[12] = Metabolic stability in dog liver microsomes assessed as parent compound remaining measured after 2 hrs; format: ADME, Canis lupus familiaris, Microsome; details: read-out: Stability
[13] = Metabolic stability in rat liver microsomes assessed as parent compound remaining measured after 2 hrs; format: ADME, Microsome; details: read-out: Stability
[14] = Metabolic stability in mouse liver microsomes assessed as parent compound remaining measured after 2 hrs; format: ADME, Microsome; details: read-out: Stability

SMILES	IC50 [1] [nM]	IC50 (BT-549) [nM]	IC50 (A-375 [2]) [nM]	also measured
CNCCNCc1cccc(-c2nc(NC3CCOCC3)c(C)c(-c3cccc4[nH]ccc34)n2)c1	11.8	–	–	–
CNCCNCc1cccc(-c2nc(NC3CCOCC3)c(C)c(-c3ccc(OC)cc3)n2)c1	26.9	–	–	–
Cc1noc(C)c1-c1nc(-c2cccc(CNC(=O)[C@H](C)N)c2)nc(NC2CCOCC2)c1C	> 1000	–	–	–
Cc1c(NC2CCOCC2)nc(-c2cccc(CNC(=O)[C@H](C)N)c2)nc1-c1ccncc1	> 1000	–	–	–
CNCCNCc1cccc(-c2nc(Nc3ccccc3)c(C)c(NC3CCOCC3)n2)c1	187	–	–	–
CNCCNCc1cccc(-c2nc(NC3CCN(S(C)(=O)=O)CC3)c(C)c(-c3c(C)noc3C)n2)c1	4.24	> 50000	> 50000	–
CNCCNCc1cccc(-c2nc(NC3CCOCC3)c(C)c(-c3ccccn3)n2)c1	6.15	–	–	–
CNCCNCc1cccc(-c2nc(Nc3ccccc3)c(C)c(-c3cccnc3)n2)c1	11.6	14100	10900	–
CNCCNCc1cccc(-c2nc(-c3c(C)noc3C)c(C)c(N3CCN(S(C)(=O)=O)CC3)n2)c1	0.78	> 50000	> 50000	–
CNCCNCc1cccc(-c2nc(Nc3ccccc3)c(C)c(-c3c(C)nn(C)c3C)n2)c1	19.6	8200	6700	–
CNCCNCc1cccc(-c2nc(-c3c(C)noc3C)c(C)c(N3Cc4cccnc4C3)n2)c1	1.13	11900	8200	–
CNCCNCc1cccc(-c2nc(NC3CCOCC3)c(C)c(-c3ccnn3C)n2)c1	2.94	> 50000	> 50000	–
CNCCNCc1cccc(-c2nc(NC3CCOCC3)c(C)c(-c3c(C)nn(C)c3C)n2)c1	0.65	> 50000	> 50000	–
CNCCNCc1cccc(-c2nc(NC3CCOCC3)c(C)c(-c3ccc(OC(F)(F)F)cc3)n2)c1	5.13	–	–	–
CNCCNCc1cccc(-c2nc(NC3CCOCC3)c(C)c(-c3cccnc3)n2)c1	0.92	> 50000	45500	–
CNCCNCc1cccc(-c2nc(NC3CCOCC3)c(C)c(-c3cncnc3)n2)c1	4.29	> 50000	> 50000	–
CNC[C@@H](O)COc1ccc(Cl)c(-c2nc(-c3c(C)noc3C)c(C)c(N3CC4(CCN(C(=O)OC)CC4)C3)n2)c1	–	–	–	inhibition in vivo at 75 mg/kg (A-375 [3]): 24%; inhibition in vivo at 100 mg/kg (A-375 [4]): 82.6%
Cc1c(NC2CCOCC2)nc(-c2cccc(CNC(=O)[C@@H](N)CO)c2)nc1-c1ccccc1	> 1000	–	–	–
CNCCNCc1cccc(-c2nc(NC3CCOCC3)c(C)c(-c3cccc4cnccc34)n2)c1	4.37	32000	12700	–
CNCCNCc1cccc(-c2nc(NC3CCOCC3)c(C)c(OCc3ccccc3)n2)c1	33.6	–	–	–
CNCCNCc1cccc(-c2nc(NC3CCOCC3)c(C)c(-c3cc4cccc(OC)c4[nH]3)n2)c1	29.4	–	–	–

SMILES	IC50 [1] [nM]	IC50 (BT-549) [nM]	IC50 (A-375 [2]) [nM]	also measured
CNCCNCc1cccc(-c2nc(NC3CCOCC3)c(C)c(-c3ccc(S(C)(=O)=O)cc3)n2)c1	5.2	–	–	–
CNCCNCc1cccc(-c2nc(Cl)c(C)c(NC3CCOCC3)n2)c1	29.5	–	–	–
CNCCNCc1cccc(-c2nc(-c3c(C)noc3C)c(C)c(N3CCN(C)CC3)n2)c1	13.1	–	–	–
Cc1c(NC2CCOCC2)nc(-c2cccc(CNC(=O)[C@H](C)N)c2)nc1-c1ccccc1	> 1000	–	–	–
CNCCNCc1cccc(-c2nc(NC3CCOCC3)c(C)c(-c3ccc(O)cc3)n2)c1	2.3	23700	24100	–
CNCCNCc1cccc(-c2nc(NC3CCOCC3)c(C)c(-c3ccnc4[nH]ccc34)n2)c1	3.84	25200	18200	–
CNCCNCc1cccc(-c2nc(-c3c(C)noc3C)c(C)c(N3CCN(C(C)=O)CC3)n2)c1	11.5	–	–	–
Cc1c(NC2CCOCC2)nc(-c2cccc(CNC(=O)[C@@H](N)CO)c2)nc1-c1ccncc1	> 1000	–	–	–
CNCCNCc1cccc(-c2nc(NC3CCOCC3)c(C)c(-c3cc4ccccc4s3)n2)c1	21.4	–	–	–
CNCCNCc1cccc(-c2nc(-c3c(C)noc3C)c(C)c(N3CCS(=O)(=O)CC3)n2)c1	2.46	> 50000	> 50000	–
CNCCNCc1cccc(-c2nc(NCc3ccccc3)c(C)c(NC3CCOCC3)n2)c1	31.5	–	–	–
Cc1noc(C)c1-c1nc(-c2cccc(CNC(=O)[C@@H](N)CO)c2)nc(NC2CCOCC2)c1C	> 1000	–	–	–
CNCCNCc1cccc(-c2nc(NC3CCOCC3)c(C)c(-c3c(C)noc3C)n2)c1	1.63	> 50000	> 50000	half-life [5]: 6.56 h; Tmax [6]: 1.33 h; Cmax [7]: 95.4 ng/mL; AUC(0-t) at 24 h [8]: 199 ng·h/mL; AUC(0-inf) [9]: 209 ng·h/mL; remaining at 2 h [10]: 93.1%; remaining at 2 h [11]: 86.1%; remaining at 2 h [12]: 85.5%; remaining at 2 h [13]: 93.4%; remaining at 2 h [14]: 90%
CNCCNCc1cccc(-c2nc(NC3CCOCC3)c(C)c(-c3ccncc3)n2)c1	3.68	> 50000	44300	–
CNCCNCc1cccc(-c2nc(NC3CCOCC3)c(C)c(-c3cn(C)nc3C)n2)c1	3.78	> 50000	> 50000	–
CNCCNCc1cccc(-c2nc(-c3c(C)noc3C)c(C)c(N3Cc4ccccc4C3)n2)c1	10.1	–	–	–
CNCCNCc1cccc(-c2nc(-c3c(C)noc3C)c(C)c(N3CCCCC3)n2)c1	21.7	–	–	–
CNCCNCc1cccc(-c2nc(NC3CCOCC3)c(C)c(-c3cccc4ncccc34)n2)c1	6.07	–	–	–
CNCCNCc1cccc(-c2nc(NC3CCOCC3)c(C)c(-c3ccccc3)n2)c1	10.2	–	–	–
CNCCNCc1cccc(-c2nc(NC3CCOCC3)c(C)c(Oc3ccccc3)n2)c1	60	–	–	–
CNCCNCc1cccc(-c2nc(-c3c(C)noc3C)c(C)c(N3CCOCC3)n2)c1	1.1	> 50000	24700	–
